This passage reports IC50 results from patent publication US20180028507A1, “3-CARBAMOYLPHENYL-4-CARBOXAMIDE AND ISOPHTALAMIDE DERIVATIVES AS INHIBITORS OF THE WNT SIGNALLING PATHWAY” (Bayer Pharma Aktiengesellschaft, priority 2015, published 2018).

What is called IC50 is the midpoint of a concentration-inhibition curve. A low value points to greater potency in that assay.

The test system of experiment [1] is constitutive active colorectal cancer cell (CRC) Wnt pathway. Put plainly: HCT116 TOPFlash cellular reporter assay (Super TopFlash vector, luciferase). In kind it is cell-based. The conditions noted are these: Homo sapiens, HCT-116; HCT116 Super TopFlash reporter cells, 36 hours incubation, dilution series 50 μM to 15 nM, luciferase expression. The protocol:
In order to discover and characterize small molecules which inhibit the constitutive active colorectal cancer cell (CRC) Wnt pathway, a cellular reporter assay was employed. The corresponding assay cell was generated by transfection of the colorectal cancer cell line HCT116 (ATCC, #CCL-247) with the Super TopFlash vector (Morin, Science 275, 1997, 1787-1790; Molenaar et al., Cell 86 (3), 1996, 391-399). The HCT116 cell line is cultivated at 37° C. and 5% CO2 in DMEM/F-12 (Life Technologies, #11320-074), supplemented with 2 mM glutamine, 20 mM HEPES, 1.4 mM pyruvate, 0.15% Na-bicarbonate and 10% foetal bovine serum (GIBCO, #10270), this cancer cell line is pathophysiological relevant since it carries a deletion of position S45 in the β-catenin gene, leading to constitutive active Wnt signaling. Stable transfectants were generated by cotransfection with pcDNA3 and selection of stable transfected cells with 1 mg/ml G418.
(§1) In preparation of the assay, the two cell lines were plated 24 hours before at 10000 cells per well of a 384 micro titre plate (MTP) in 30 μL growth medium. Selective inhibitory activity for small molecules on the mutated Wnt pathway was determined after parallel incubation of both (TOP and FOP) HCT116 reporter cell lines with a compound dilution series from 50 μM to 15 nM in steps of 3.16-fold dilutions in CAFTY buffer (130 mM NaCl, 5 mM KCl, 20 mM HEPES, 1 mM MgCl2, 5 mM NaHCO3, pH 7.4) containing 2 mM Ca^2+ and 0.01% BSA. The compounds were thereby serially prediluted in 100% DMSO and thereafter in addition 50 fold into the CAFTY compound dilution buffer (described above). From this dilution 10 μL were added to the cells in 30 μL growth medium and incubated for 36 hours at 37° C. and 5% CO2.
Background: In a reporter assay the amount or activity of a reporter protein is the signal.

For experiment [2], the system named is HCT116 cells cotransfected with the FOP control vector (non-functional TCF elements). Put plainly: HCT116 FOPFlash control reporter assay (FOP control vector, luciferase). Type of experiment: cell-based. The conditions noted are these: Homo sapiens, HCT-116, 36 hours incubation, dilution series 50 μM to 15 nM, luciferase expression. The protocol:
In a parallel approach, HCT116 cells were cotransfected with the FOP control vector and pcDNA3. The FOP vector is identical to the TOP construct, but it contains instead of functional TCF elements a randomized, non-functional sequence. For this transfection a stable transfected cell line was generated as well.
as §1

Some results are limits rather than exact numbers.

As to `COc1ccc(C(=O)Nc2ccc(-c3ccccc3)cc2)cc1C(=O)Nc1ccncc1C` [Example 13, N^1-(biphenyl-4-yl)-4-methoxy-N^3-(3-methylpyridin-4-yl)isophthalamide], the figures for the half-maximal inhibitory concentration (IC50) in experiment [1] and in experiment [2] were 0.405 µM and ≥ 50 µM, respectively.
Taken in the same sequence, the figures for `Cc1ccc(C(=O)Nc2ccc(-c3ccccc3)cc2)cc1C(=O)Nc1ccnc(F)c1` [Example 43, N^1-(biphenyl-4-yl)-N^3-(2-fluoropyridin-4-yl)-4-methylisophthalamide] were 1.37 µM and ≥ 50 µM.
For the compound `O=C(Nc1ccc(-c2ccccc2F)nc1)c1ccc(OC(F)(F)F)c(C(=O)Nc2ccncc2F)c1` [Example 42, N^1-[6-(2-fluorophenyl)pyridin-3-yl]-N^3-(3-fluoropyridin-4-yl)-4-(trifluoromethoxy) isophthalamide], the IC50 is 2.13 µM in experiment [1] and ≥ 50 µM in experiment [2].
For the compound `O=C(Nc1ccc(-c2ccccc2)cc1)c1ccc(OC(F)(F)F)c(C(=O)NCc2cccnc2)c1` [Example 21, N^1-(biphenyl-4-yl)-N^3-(pyridin-3-ylmethyl)-4-(trifluoromethoxy)isophthalamide], the figures for the IC50 in experiment [1] and in experiment [2] were 0.16 µM and 32.5 µM, respectively.
For `O=C(Nc1ccc(-c2ccccc2F)nc1)c1ccc(OC(F)(F)F)c(C(=O)NCc2cccnc2)c1` [Example 18, N^1-[6-(2-fluorophenyl)pyridin-3-yl]-N^3-(pyridin-3-ylmethyl)-4-(trifluoromethoxy)isophthalamide], in that order: 0.95 µM and 18.5 µM.
With `O=C(Nc1ccc(-c2ccccc2)cc1)c1ccc(OC(F)(F)F)c(C(=O)NCc2ccccn2)c1` [Example 7, N^1-(biphenyl-4-yl)-N^3-(pyridin-2-ylmethyl)-4-(trifluoromethoxy)isophthalamide], the figures for the IC50 in experiment [1] and in experiment [2] were 0.359 µM and ≥ 50 µM, respectively.
For `COc1ccc(C(=O)Nc2ccc(-c3ccccc3F)nc2)cc1C(=O)Nc1cncc(C)c1` [Example 63, N^1-[6-(2-fluorophenyl)pyridin-3-yl]-4-methoxy-N^3-(5-methylpyridin-3-yl)isophthalamide], in that order: 26.7 µM and ≥ 50 µM.
Taken in the same sequence, the figures for `O=C(Nc1ccc(-c2ccccc2)cc1)c1ccc(OC(F)(F)F)c(C(=O)Nc2ccncc2)c1` [Example 20, N^1-(biphenyl-4-yl)-N^3-(pyridin-4-yl)-4-(trifluoromethoxy)isophthalamide] were 0.335 µM and 7.55 µM.
Taken in the same sequence, the figures for `O=C(Nc1ccc(-c2ccccc2)cc1)c1ccc(OC(F)(F)F)c(C(=O)Nc2cccnc2)c1` [Example 45, N^1-(biphenyl-4-yl)-N^3-(pyridin-3-yl)-4-(trifluoromethoxy) isophthalamide] were 2.6 µM and ≥ 50 µM.
On to `COCCCNC(=O)c1cc(NC(=O)c2ccc(-c3ccccc3)cc2)ccc1OC` [Example 2, N-{4-methoxy-3-[(3-methoxypropyl)carbamoyl]phenyl}biphenyl-4-carboxamide], for which the IC50 in experiment [1] is 0.495 µM; in experiment [2], ≥ 50 µM.
Regarding `COc1ccc(C(=O)Nc2ccc(-c3ccccc3F)nc2)cc1C(=O)Nc1ccncc1C` [Example 46, N^1-[6-(2-fluorophenyl)pyridin-3-yl]-4-methoxy-N^3-(3-methylpyridin-4-yl)isophthalamide], the half-maximal inhibitory concentration (IC50) in experiment [1] is 2.23 µM; in experiment [2] it was ≥ 50 µM.
For `O=C(Nc1ccc(-c2ccccc2)cc1)c1ccc(OC(F)(F)F)c(C(=O)Nc2ccncc2F)c1` [Example 22, N^1-(biphenyl-4-yl)-N^3-(3-fluoropyridin-4-yl)-4-(trifluoromethoxy)isophthalamide], the IC50 is 0.375 µM in experiment [1] and ≥ 50 µM in experiment [2].
Taken in the same sequence, the figures for `CC(C)(C)OC(=O)Nc1ccc(CNC(=O)c2cc(C(=O)Nc3ccc(-c4ccccc4)cc3)ccc2OC(F)(F)F)cn1` [Example 24, tert-butyl [5-({[5-(biphenyl-4-ylcarbamoyl)-2-(trifluoromethoxy)benzoyl]amino}methyl)pyridin-2-yl]carbamate] were 0.835 µM and 23 µM.
For `COc1ccc(NC(=O)c2ccc(-c3ccccc3)cc2)cc1C(=O)Nc1ccncc1Cl` [Example 9, N-{3-[(3-chloropyridin-4-yl)carbamoyl]-4-methoxyphenyl}biphenyl-4-carboxamide], in that order: 0.149 µM and ≥ 50 µM.
For `COc1ccc(NC(=O)c2ccc(-c3ccccc3)cc2)cc1C(=O)Nc1ccnc(C)c1` [Example 3, N-{4-methoxy-3-[(2-methylpyridin-4-yl)carbamoyl]phenyl}biphenyl-4-carboxamide], in that order: 0.0917 µM and 28 µM.
On to `COc1ccc(NC(=O)c2ccc(-c3ccccc3)cc2)cc1C(=O)Nc1ccncc1` [Example 1, N-[4-methoxy-3-(pyridin-4-ylcarbamoyl)phenyl]biphenyl-4-carboxamide], for which the IC50 in experiment [1] is 0.483 µM; in experiment [2] it was 35 µM.
As for `Cc1cc(NC(=O)c2cc(C(=O)Nc3ccc(-c4ccccc4)cc3)ccc2OC(F)(F)F)ccn1` [Example 10, N^1-(biphenyl-4-yl)-N^3-(2-methylpyridin-4-yl)-4-(trifluoromethoxy)isophthalamide], the IC50 in experiment [1] was determined as 0.6 µM; in experiment [2] it was 10 µM.
For `COCC(C)(C)CNC(=O)c1cc(NC(=O)c2ccc(-c3ccccc3)cc2)ccc1OC` [Example 35, N-{4-methoxy-3-[(3-methoxy-2,2-dimethylpropyl)carbamoyl]phenyl}biphenyl-4-carboxamide], in that order: 4.35 µM and ≥ 50 µM.
As for `O=C(Nc1ccc(-c2cccnc2)cn1)c1ccc(OC(F)(F)F)c(C(=O)NCc2cnccn2)c1` [Example 50, N^1-(3,3′-bipyridin-6-yl)-N^3-(pyrazin-2-ylmethyl)-4-(trifluoromethoxy) isophthalamide], the IC50 in experiment [1] is 1.7 µM; in experiment [2] it was ≥ 50 µM.
Consider `COc1ccc(NC(=O)c2ccc(-c3ccccc3)cc2)cc1C(=O)Nc1ccncc1F` [Example 8, N-{3-[(3-fluoropyridin-4-yl)carbamoyl]-4-methoxyphenyl}biphenyl-4-carboxamide], for which the results for the concentration for half-maximal inhibition (IC50) in experiment [1] and in experiment [2] were 0.129 µM and ≥ 50 µM, respectively.
For the compound `COc1ccc(C(=O)Nc2ccc(-c3ccccc3)cc2)cc1C(=O)Nc1ccnc(C)c1` [Example 12, N^1-(biphenyl-4-yl)-4-methoxy-N^3-(2-methylpyridin-4-yl)isophthalamide], the 50% inhibitory concentration (IC50) in experiment [1] was 0.635 µM; in experiment [2], 13.5 µM.
For the compound `COc1cc(NC(=O)c2cc(C(=O)Nc3ccc(-c4ccccc4)cc3)ccc2OC)ccn1` [Example 38, N^1-(biphenyl-4-yl)-4-methoxy-N^3-(2-methoxypyridin-4-yl)isophthalamide], the IC50 came to 1.11 µM in experiment [1] and 21 µM in experiment [2].
Taken in the same sequence, the figures for `Cc1cnccc1NC(=O)c1cc(C(=O)Nc2ccc(-c3ccccc3F)nc2)ccc1OC(F)(F)F` [Example 19, N^1-[6-(2-fluorophenyl)pyridin-3-yl]-N^3-(3-methylpyridin-4-yl)-4-(trifluoromethoxy)isophthalamide] were 0.878 µM and ≥ 50 µM.
Taken in the same sequence, the figures for `COc1ccc(C(=O)Nc2ccc(-c3ccccc3F)nc2)cc1C(=O)Nc1cccnc1` [Example 60, N^1-[6-(2-fluorophenyl)pyridin-3-yl]-4-methoxy-N^3-(pyridin-3-yl)isophthalamide] were 6.05 µM and 11 µM.
In the case of `Nc1ccc(CNC(=O)c2cc(C(=O)Nc3ccc(-c4ccccc4)cc3)ccc2OC(F)(F)F)cn1` [Example 29, N^3-[(6-aminopyridin-3-yl)methyl]-N^1-(biphenyl-4-yl)-4-(trifluoromethoxy)isophthalamide], the IC50 was found to be 0.76 µM in experiment [1] and 16 µM in experiment [2].
Taken in the same sequence, the figures for `COc1ccc(C(=O)Nc2ccc(-c3ccccc3)cc2)cc1C(=O)Nc1ccncc1Cl` [Example 15, N^1-(biphenyl-4-yl)-N^3-(3-chloropyridin-4-yl)-4-methoxyisophthalamide] were 0.9 µM and ≥ 50 µM.
For `COc1ccc(C(=O)Nc2ccc(-c3ccccc3)cc2)cc1C(=O)NCc1ccccn1` [Example 39, N^1-(biphenyl-4-yl)-4-methoxy-N^3-(pyridin-2-ylmethyl)isophthalamide], in that order: 3.4 µM and ≥ 50 µM.
